Reference: the NIST ThermoML archive (doi:10.1016/j.jct.2013.01.006)

Conditions: Liquid, Vibrating tube method

C=C(F)C(F)(F)F [2,3,3,3-tetrafluoro-1-propene]
Conditions | mass density [kg/m3]
283.5 K, 3000 kPa | 1155.63
283.5 K, 5000 kPa | 1165.27
283.51 K, 1000 kPa | 1145.11
283.51 K, 10000 kPa | 1186.43
283.51 K, 15000 kPa | 1204.63
283.52 K, 20000 kPa | 1220.62
283.52 K, 25000 kPa | 1235
283.53 K, 30000 kPa | 1248.1
283.53 K, 40000 kPa | 1271.31
283.53 K, 50000 kPa | 1291.52
283.53 K, 60000 kPa | 1309.52
283.53 K, 69990 kPa | 1325.92
283.54 K, 79990 kPa | 1340.69
283.54 K, 89990 kPa | 1354.31
283.54 K, 99990 kPa | 1367.01
293.42 K, 100000 kPa | 1352.4
293.43 K, 1000 kPa | 1111.44
293.43 K, 3000 kPa | 1123.79
293.43 K, 5000 kPa | 1134.97
293.43 K, 80000 kPa | 1324.88
293.43 K, 89990 kPa | 1339.25
293.44 K, 10000 kPa | 1159.05
293.44 K, 15000 kPa | 1179.37
293.44 K, 20000 kPa | 1196.95
293.44 K, 70000 kPa | 1309.56
293.45 K, 25000 kPa | 1212.64
293.45 K, 30000 kPa | 1226.8
293.45 K, 40000 kPa | 1251.77
293.45 K, 50000 kPa | 1273.28
293.45 K, 60000 kPa | 1292.28
303.3 K, 1000 kPa | 1077.2
303.3 K, 3000 kPa | 1092.22
303.3 K, 5000 kPa | 1105.38
303.3 K, 10000 kPa | 1133.08
303.3 K, 20000 kPa | 1175.21
303.3 K, 25000 kPa | 1192.3
303.3 K, 30000 kPa | 1207.61
303.3 K, 40000 kPa | 1234.24
303.3 K, 50000 kPa | 1257.07
303.3 K, 60000 kPa | 1277.12
303.31 K, 15000 kPa | 1155.81
303.31 K, 69990 kPa | 1295.36
303.31 K, 80000 kPa | 1311.51
303.31 K, 90000 kPa | 1326.38
303.31 K, 99990 kPa | 1340.07
313.3 K, 3000 kPa | 1054.12
313.3 K, 5000 kPa | 1070.05
313.3 K, 10000 kPa | 1102.25
313.3 K, 15000 kPa | 1127.81
313.31 K, 20000 kPa | 1149.23
313.31 K, 25000 kPa | 1167.84
313.31 K, 30000 kPa | 1184.38
313.31 K, 79990 kPa | 1294.04
313.31 K, 100000 kPa | 1323.74
313.32 K, 40000 kPa | 1212.87
313.32 K, 50000 kPa | 1237.08
313.32 K, 60000 kPa | 1258.24
313.32 K, 70000 kPa | 1277.17
313.32 K, 90000 kPa | 1309.49
323.16 K, 30000 kPa | 1163.21
323.16 K, 80000 kPa | 1279.1
323.16 K, 90000 kPa | 1295.16
323.16 K, 100000 kPa | 1309.92
323.17 K, 3000 kPa | 1014.55
323.17 K, 5000 kPa | 1034.38
323.17 K, 10000 kPa | 1072.33
323.17 K, 15000 kPa | 1101.29
323.17 K, 20000 kPa | 1125.01
323.17 K, 25000 kPa | 1145.33
323.17 K, 40000 kPa | 1193.69
323.17 K, 50000 kPa | 1219.3
323.17 K, 60000 kPa | 1241.51
323.17 K, 69990 kPa | 1261.48
333.08 K, 3000 kPa | 970.09
333.08 K, 5000 kPa | 995.64
333.08 K, 10000 kPa | 1041.18
333.08 K, 15000 kPa | 1074.07
333.08 K, 20000 kPa | 1100.37
333.08 K, 25000 kPa | 1122.55
333.08 K, 30000 kPa | 1141.81
333.08 K, 40000 kPa | 1174.38
333.08 K, 50000 kPa | 1201.52
333.08 K, 60000 kPa | 1224.88
333.08 K, 70000 kPa | 1245.82
333.08 K, 80000 kPa | 1264.16
333.08 K, 90000 kPa | 1280.84
333.08 K, 99990 kPa | 1296.14
343.03 K, 25000 kPa | 1099.43
343.04 K, 30000 kPa | 1120.26
343.04 K, 40000 kPa | 1155.06
343.05 K, 50000 kPa | 1183.7
343.05 K, 60000 kPa | 1208.19
343.05 K, 70000 kPa | 1230.04
343.05 K, 80000 kPa | 1249.14
343.05 K, 90000 kPa | 1266.4
343.06 K, 15000 kPa | 1045.88
343.06 K, 20000 kPa | 1075.15
343.06 K, 100000 kPa | 1282.22
343.07 K, 3000 kPa | 917.18
343.07 K, 5000 kPa | 952.33
343.07 K, 10000 kPa | 1008.02
353.02 K, 3000 kPa | 849.05
353.02 K, 99990 kPa | 1268.7
353.03 K, 5000 kPa | 902.77
353.03 K, 10000 kPa | 973.22
353.03 K, 15000 kPa | 1016.73
353.03 K, 20000 kPa | 1049.45
353.03 K, 25000 kPa | 1075.98
353.03 K, 30000 kPa | 1098.53
353.03 K, 40000 kPa | 1135.71
353.03 K, 50000 kPa | 1166.05
353.03 K, 60000 kPa | 1191.81
353.03 K, 69990 kPa | 1214.55
353.03 K, 79990 kPa | 1234.41
353.03 K, 89990 kPa | 1252.33
362.96 K, 5000 kPa | 843.74
362.96 K, 10000 kPa | 936.17
362.96 K, 15000 kPa | 986.89
362.96 K, 20000 kPa | 1023.49
362.96 K, 25000 kPa | 1052.55
362.96 K, 30000 kPa | 1076.97
362.96 K, 40000 kPa | 1116.69
362.96 K, 50000 kPa | 1148.71
362.96 K, 60000 kPa | 1175.67
362.96 K, 70000 kPa | 1199.47
362.96 K, 80000 kPa | 1220.08
362.96 K, 89990 kPa | 1238.55
362.96 K, 100000 kPa | 1255.48
